Experimental data as given in patent US4891360A, “6-amino anthracyclines, process for their preparation and use thereof” (Farmitalia Carlo Erba S.r.l., priority 1986, dated 1990).
In brackets after ≈: the same amount, converted by molar mass. Where two headings read alike, the source gives them in different places.

Assays:
[1] = system: Human Colon Adenocarcinoma Cell Line sensitive to doxorubicin (LoVo); assay: In vitro cytotoxicity, colony inhibition test on human colon adenocarcinoma cell line sensitive to doxorubicin (LoVo); format: cell-based; settings: read-out: ID50 (dose which gives 50% reduction of cell number in comparison with untreated controls), LoVo
Procedure: (§1) Compound II (4-demethoxy-6-deoxy-6-aminodaunorubicin) and Compound III (4-demethoxy-6-deoxy-6-aminodoxorubicin) have been tested "in vitro" against Human Colon Adenocarcinoma Cell Line sensitive to doxorubicin (LoVo) and resistant to doxorubicin (LoVo/DX) in comparison with daunorubicin (DNR) and doxorubicin (DX).
(§2) In Vitro cytotoxicity (a) on human colon adenocarcinoma cell
(§3) line sensitive (LoVo) and resistant to doxorubicin (LoVo/DX)
(§4) (a)Colony inhibition test: 4 hours treatment
(§5) (b)dose which gives 50% reduction of cell number in comparison with
(§6) In Vitro cytotoxicity (a) on human colon adenocarcinoma
(§7) cell line sensitive (LoVo) and resistant to doxorubicin
(§8) (LoVo/DX) of 4-demethoxy-6-deoxy-6-amino DX
(§9) (a)Colony inhibition test: -24 hours treatment

[2] = system: Human Colon Adenocarcinoma Cell Line resistant to doxorubicin (LoVo/DX); assay: In vitro cytotoxicity, colony inhibition test on human colon adenocarcinoma cell line resistant to doxorubicin (LoVo/DX); format: cell-based; settings: read-out: ID50 (dose which gives 50% reduction of cell number in comparison with untreated controls), LoVo/DX
Procedure: as §1, §2, §3, §4, §5, §6, §7, §8, §9

[3] = Table 1, colony inhibition test, 4 hours treatment
[4] = Table 2, colony inhibition test, 24 hours treatment

CC(=O)[C@]1(O)Cc2c(O)c3c(c(N)c2[C@@H](O[C@H]2C[C@H](N)[C@H](O)[C@H](C)O2)C1)C(=O)c1ccccc1C3=O [Compound II, 4-demethoxy-6-deoxy-6-amino daunorubicin]
IC50 [1, 3]: 0.09 µg/mL (≈ 0.181 µM) | IC50 [2, 3]: 4.4 µg/mL (≈ 8.86 µM)

C[C@@H]1O[C@@H](O[C@H]2C[C@](O)(C(=O)CO)Cc3c(O)c4c(c(N)c32)C(=O)c2ccccc2C4=O)C[C@H](N)[C@@H]1O [Compound III, 4-demethoxy-6-deoxy-6-amino doxorubicin]
IC50 [1, 4]: 0.099 µg/mL (≈ 0.193 µM) | IC50 [2, 4]: 1.15 µg/mL (≈ 2.24 µM)

COc1cccc2c1C(=O)c1c(O)c3c(c(O)c1C2=O)C[C@@](O)(C(C)=O)C[C@@H]3O[C@H]1C[C@H](N)[C@H](O)[C@H](C)O1 [DNR, daunorubicin]
IC50 ([1]; 4 h): 0.042 µg/mL (≈ 0.0796 µM) | IC50 ([2]; 4 h): 2.36 µg/mL (≈ 4.47 µM)

COc1cccc2c1C(=O)c1c(O)c3c(c(O)c1C2=O)C[C@@](O)(C(=O)CO)C[C@@H]3O[C@H]1C[C@H](N)[C@H](O)[C@H](C)O1 [DX, doxorubicin]
IC50 ([1]; 24 h): 0.0266 µg/mL (≈ 0.0489 µM) | IC50 ([2]; 24 h): 0.833 µg/mL (≈ 1.53 µM)
